{
  "source": "patent US8163771B2",
  "about": "“11 β-HSD1 modulators” (Exelixis, Inc., priority 2008, dated 2012)",
  "data": [
    {"target": "T1, recombinant human 11 β-HSD1 (Homo sapiens, UniProt P28845)", "T1 construct": "made in house; host or cells: E. coli", "T1 sequence (P28845 whole entry)": "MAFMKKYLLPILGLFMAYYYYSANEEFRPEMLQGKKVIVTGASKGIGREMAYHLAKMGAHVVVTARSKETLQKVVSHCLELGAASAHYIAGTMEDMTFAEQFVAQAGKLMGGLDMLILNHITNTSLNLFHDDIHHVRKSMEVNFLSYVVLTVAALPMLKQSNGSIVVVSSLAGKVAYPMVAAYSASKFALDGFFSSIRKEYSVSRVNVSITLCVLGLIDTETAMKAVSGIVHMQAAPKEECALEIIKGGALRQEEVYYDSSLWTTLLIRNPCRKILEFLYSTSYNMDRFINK", "experiment": "11 β-HSD1 SPA Assay (Scintillation Proximity Assay)", "type": "biochemical", "outline": "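Scintillation proximity read-out of cortisol formed from 40 nM [3H]cortisone by purified recombinant human enzyme (30-100 nM, E. coli) with 1 mM NADPH, pH7.4, 2 hours at room temperature; beads with cortisol antibody and glycyrrhetinic acid stop the reaction, read next day. IC50 derived from inhibition normalised to background and maximal wells.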", "units": {"IC50": "nM"}, "values": [
      {"smiles": "CC(C)(Oc1ccc(F)cc1F)C(=O)N[C@H]1C[C@H]2CC[C@@H](C1)N2c1ccc(S(C)(=O)=O)cn1", "note": "[Example 200, 2-[(2,4-difluorophenyl)oxy]-2-methyl-N-{8-[5-(methylsulfonyl)pyridin-2-yl]-8-azabicyclo[3.2.1]oct-3-endo-yl}propanamide]", "IC50": "< 200"},
      {"smiles": "CC(C)(Oc1ccc(Cl)cc1Cl)C(=O)N[C@H]1C[C@H]2CC[C@@H](C1)N2c1ccc(C(=O)NC2CC2)c(F)c1", "note": "[Example 130, N-cyclopropyl-4-[3-endo-({2-[(2,4-dichlorophenyl)oxy]-2-methylpropanoyl}amino)-8-azabicyclo[3.2.1]oct-8-yl]-2-fluorobenzamide]", "IC50": "< 200"},
      {"smiles": "O=C(NC1CC1)c1ccc(N2[C@@H]3CC[C@H]2C[C@@H](NC(=O)C2(c4ccc(F)c(F)c4)CC2)C3)nc1", "note": "[Example 28, N-cyclopropyl-6-[3-endo-({[1-(3,4-difluorophenyl)cyclopropyl]carbonyl}amino)-8-azabicyclo[3.2.1]oct-8-yl]pyridine-3-carboxamide]", "IC50": "< 200"},
      {"smiles": "O=C(NC1CC1)c1ccc(N2[C@@H]3CC[C@H]2C[C@@H](NC(=O)C2(Oc4ccccc4)CCC2)C3)nc1", "note": "[Example 46, N-cyclopropyl-6-[3-endo-({[1-(phenyloxy)cyclobutyl]carbonyl}amino)-8-azabicyclo[3.2.1]oct-8-yl]pyridine-3-carboxamide]", "IC50": "< 200"},
      {"smiles": "CC(C)(Oc1cccc2[nH]ccc12)C(=O)N[C@H]1C[C@H]2CC[C@@H](C1)N2c1ccc(C(=O)NCC(F)(F)F)cn1", "note": "[Example 366, 6-(3-endo-{[2-(1h-indol-4-yloxy)-2-methylpropanoyl]amino}-8-azabicyclo[3.2.1]oct-8-yl)-N-(2,2,2-trifluoroethyl)pyridine-3-carboxamide]", "IC50": "< 200"},
      {"smiles": "CC(Oc1ccc(Cl)cc1Cl)C(=O)N[C@H]1C[C@H]2CC[C@@H](C1)N2c1ccc(C(=O)NC2CC2)cn1", "note": "(stereo partly drawn) [Example 82, N-cyclopropyl-6-[3-endo-({2-[(2,4-dichlorophenyl)oxy]propanoyl}amino)-8-azabicyclo[3.2.1]oct-8-yl]pyridine-3-carboxamide]", "IC50": "< 200"},
      {"smiles": "O=C(NC1CC1)c1ccc(N2[C@@H]3CC[C@H]2C[C@@H](NC(=O)C2(Oc4ccc(Cl)cc4)CC2)C3)nc1", "note": "[Example 64, 6-{3-endo-[({1-[(4-chlorophenyl)oxy]cyclopropyl}carbonyl)amino]-8-azabicyclo[3.2.1]oct-8-yl}-N-cyclopropylpyridine-3-carboxamide]", "IC50": "< 200"},
      {"smiles": "CC(C)(Oc1ccc(F)c(Cl)c1)C(=O)N[C@H]1C[C@H]2CC[C@@H](C1)N2c1ccc(C(=O)NCC(F)(F)F)cn1", "note": "[Example 93, 6-[3-endo-({2-[(3-chloro-4-fluorophenyl)oxy]-2-methylpropanoyl}amino)-8-azabicyclo[3.2.1]oct-8-yl]-N-(2,2,2-trifluoroethyl)pyridine-3-carboxamide]", "IC50": "< 200"},
      {"smiles": "CC(C)(Oc1ccc(Cl)cc1Cl)C(=O)N[C@H]1C[C@H]2CC[C@@H](C1)N2c1ccc(NC(=O)CC(F)(F)F)cc1", "note": "[Example 133, N-{4-[3-endo-({2-[(2,4-dichlorophenyl)oxy]-2-methylpropanoyl}amino)-8-azabicyclo[3.2.1]oct-8-yl]phenyl}-3,3,3-trifluoropropanamide]", "IC50": "< 200"},
      {"smiles": "CC(C)(Oc1cc(Cl)ccc1Cl)C(=O)N[C@H]1C[C@H]2CC[C@@H](C1)N2c1ccc(C(=O)NC2CC2)cn1", "note": "[Example 71, N-cyclopropyl-6-[3-endo-({2-[(2,5-dichlorophenyl)oxy]-2-methylpropanoyl}amino)-8-azabicyclo[3.2.1]oct-8-yl]pyridine-3-carboxamide]", "IC50": "< 200"},
      {"smiles": "COc1ccc(OC(C)(C)C(=O)N[C@H]2C[C@H]3CC[C@@H](C2)N3c2ccc(S(C)(=O)=O)cc2)c(Cl)c1", "note": "[Example 254, 2-{[2-chloro-4-(methyloxy)phenyl]oxy}-2-methyl-N-{8-[4-(methylsulfonyl)phenyl]-8-azabicyclo[3.2.1]oct-3-endo-yl}propanamide]", "IC50": "< 200"},
      {"smiles": "CC(C)(Oc1ccc(Cl)cc1Cl)C(=O)N[C@H]1C[C@H]2CC[C@@H](C1)N2c1ccc(C(=O)NC2(CO)CC2)cn1", "note": "[Example 384, 6-(3-endo-{[2-(2,4-dichlorophenoxy)-2-methylpropanoyl]amino}-8-azabicyclo[3.2.1]oct-8-yl)-N-[1-(hydroxymethyl)cyclopropyl] pyridine-3-carboxamide]", "IC50": "< 200"},
      {"smiles": "CC(C)(Oc1ccccc1C(F)(F)F)C(=O)N[C@H]1C[C@H]2CC[C@@H](C1)N2c1ccc(C(=O)NC2CC2)cn1", "note": "[Example 113, N-cyclopropyl-6-{3-endo-[(2-methyl-2-{[2-(trifluoromethyl)phenyl]oxy}propanoyl)amino]-8-azabicyclo[3.2.1]oct-8-yl}pyridine-3-carboxamide]", "IC50": "< 200"},
      {"smiles": "CC(C)(Oc1cc(Cl)c(CO)cc1Cl)C(=O)N[C@H]1C[C@H]2CC[C@@H](C1)N2c1ccc(C(=O)NCC(F)F)cn1", "note": "[Example 464, 6-[3-endo-({2-[2,5-dichloro-4-(hydroxymethyl)phenoxy]-2-methylpropanoyl}amino)-8-azabicyclo[3.2.1]oct-8-yl]-N-(2,2-difluoroethyl)pyridine-3-carboxamide]", "IC50": "< 200"},
      {"smiles": "CC(C)(Oc1ccc(Cl)cc1Cl)C(=O)N[C@H]1C[C@H]2CC[C@@H](C1)N2c1ccc(NC(=O)NCC(F)(F)F)cc1", "note": "[Example 135, 2-[(2,4-dichlorophenyl)oxy]-2-methyl-N-{8-[4-({[(2,2,2-trifluoroethyl)amino]carbonyl}amino)phenyl]-8-azabicyclo[3.2.1]oct-3-endo-yl}propanamide]", "IC50": "< 200"},
      {"smiles": "CC(C)(Oc1cc(Cl)c(Cl)cc1Cl)C(=O)N[C@H]1C[C@H]2CC[C@@H](C1)N2c1ccc(S(C)(=O)=O)cn1", "note": "[Example 197, 2-methyl-N-{8-[5-(methylsulfonyl)pyridin-2-yl]-8-azabicyclo[3.2.1]oct-3-endo-yl}-2-[(2,4,5-trichlorophenyl)oxy]propanamide]", "IC50": "< 200"},
      {"smiles": "CC(C)(Oc1ccc(Cl)cc1C1CCCC1)C(=O)N[C@H]1C[C@H]2CC[C@@H](C1)N2c1ccc(C(N)=O)cn1", "note": "[Example 320, 6-[3-endo-({2-[(4-chloro-2-cyclopentylphenyl)oxy]-2-methylpropanoyl}amino)-8-azabicyclo[3.2.1]oct-8-yl]pyridine-3-carboxamide]", "IC50": "< 200"},
      {"smiles": "CC(C)(Oc1cccc(Cl)c1)C(=O)N[C@H]1C[C@H]2CC[C@@H](C1)N2c1ccc(C(=O)NC2CC2)cn1", "note": "[Example 14, 6-[3-endo-({2-[(3-chlorophenyl)oxy]-2-methylpropanoyl}amino)-8-azabicyclo[3.2.1]oct-8-yl]-N-cyclopropylpyridine-3-carboxamide]", "IC50": "< 200"},
      {"smiles": "C[C@H](NC(=O)c1ccc(N2C3CCC2CC(NC(=O)C(C)(C)Oc2ccc(Cl)cc2S(C)(=O)=O)C3)nc1)C(F)(F)F", "note": "(stereo partly drawn) [Example 432, 6-[3-endo-({2-[4-chloro-2-(methylsulfonyl)phenoxy]-2-methylpropanoyl}amino)-8-azabicyclo[3.2.1]oct-8-yl]-N-[(2S)-1,1,1-trifluoropropan-2-yl]pyridine-3-carboxamide]", "IC50": "< 2000"},
      {"smiles": "CC(C)(Oc1ccc(F)cc1F)C(=O)N[C@H]1C[C@H]2CC[C@@H](C1)N2c1ccc(C(=O)NCC(F)F)cn1", "note": "[Example 443, N-(2,2-difluoroethyl)-6-(3-endo-{[2-(2,4-difluorophenoxy)-2-methylpropanoyl]amino}-8-azabicyclo[3.2.1]oct-8-yl)pyridine-3-carboxamide]", "IC50": "< 200"},
      {"smiles": "CC(C)(Oc1ccc(F)cc1Cl)C(=O)N[C@H]1C[C@H]2CC[C@@H](C1)N2c1ccc(NS(C)(=O)=O)cc1", "note": "[Example 315, 2-[(2-chloro-4-fluorophenyl)oxy]-2-methyl-N-(8-{4-[(methylsulfonyl)amino]phenyl}-8-azabicyclo[3.2.1]oct-3-endo-yl)propanamide]", "IC50": "< 200"},
      {"smiles": "CC(C)(Oc1ccc(Cl)c2ccccc12)C(=O)N[C@H]1C[C@H]2CC[C@@H](C1)N2c1ccc(C(N)=O)cn1", "note": "[Example 297, 6-[3-endo-({2-[(4-chloronaphthalen-1-yl)oxy]-2-methylpropanoyl}amino)-8-azabicyclo[3.2.1]oct-8-yl]pyridine-3-carboxamide]", "IC50": "< 200"},
      {"smiles": "C[C@@H](NC(=O)c1ccc(N2C3CCC2CC(NC(=O)C(C)(C)Oc2ccc(Cl)cc2OC(F)(F)F)C3)nc1)C(F)(F)F", "note": "(stereo partly drawn) [Example 415, 6-[3-endo-({2-[4-chloro-2-(trifluoromethoxy)phenoxy]-2-methylpropanoyl}amino)-8-azabicyclo[3.2.1]oct-8-yl]-N-[(2R)-1,1,1-trifluoropropan-2-yl]pyridine-3-carboxamide]", "IC50": "< 200"},
      {"smiles": "CC(C)(Oc1ccc(F)c(Cl)c1Cl)C(=O)N[C@H]1C[C@H]2CC[C@@H](C1)N2c1ccc(S(C)(=O)=O)cn1", "note": "[Example 153, 2-[(2,3-dichloro-4-fluorophenyl)oxy]-2-methyl-N-{8-[5-(methylsulfonyl)pyridin-2-yl]-8-azabicyclo[3.2.1]oct-3-endo-yl}propanamide]", "IC50": "< 200"},
      {"smiles": "CC(C)(Oc1ccc(Cl)cc1Cl)C(=O)N[C@H]1C[C@H]2CC[C@@H](C1)N2c1ccc(NC(=O)C(F)(F)F)cc1", "note": "[Example 116, 2-[(2,4-dichlorophenyl)oxy]-2-methyl-N-(8-{4-[(trifluoroacetyl)amino]phenyl}-8-azabicyclo[3.2.1]oct-3-endo-yl)propanamide]", "IC50": "< 200"},
      {"smiles": "CC(C)(Oc1ccccc1OC(F)(F)F)C(=O)N[C@H]1C[C@H]2CC[C@@H](C1)N2c1ccc(C(=O)NCC(F)(F)F)cn1", "note": "[Example 347, 6-[3-endo-({2-methyl-2-[2-(trifluoromethoxy)phenoxy]propanoyl}amino)-8-azabicyclo[3.2.1]oct-8-yl]-N-(2,2,2-trifluoroethyl)pyridine-3-carboxamide]", "IC50": "< 200"},
      {"smiles": "CC(C)(Oc1ccc(Cl)cc1Cl)C(=O)N[C@H]1C[C@H]2CC[C@@H](C1)N2c1ccc(C(=O)NCC(F)(F)C(F)(F)F)cn1", "note": "[Example 126, 6-[3-endo-({2-[(2,4-dichlorophenyl)oxy]-2-methylpropanoyl}amino)-8-azabicyclo[3.2.1]oct-8-yl]-N-(2,2,3,3,3-pentafluoropropyl)pyridine-3-carboxamide]", "IC50": "< 200"}
    ]}
  ]
}
